One compound from PMC11236979, “Iron-sulphur protein catalysed [4+2] cycloadditions in natural product biosynthesis” (Nature Communications, 2024) can be followed below.

The subject of the assay is T1, VtlG (P450).
T1 construct: recombinant from E. coli, purified; haem P450 monooxygenase
In words: UPLC product quantification at […] nm, Michaelis-Menten fit. To be noted: mono-hydroxylation of 4 to 6; 5 nM VtlG, commercial spinach Fd 0.1 mg/mL, spinach FNR 1 unit/mL, 1 mM NADPH; 50 mM Tris-HCl pH 7.5, 30 °C. The class given is biochemical, Streptomyces spiroverticillatus.

A word on the Km: it is the concentration of substrate that gives half-maximal velocity. Regarding `CC1=CC=CC=CC(C)CNC(=O)CC(=O)C=CC=CCC(O)CC(O)C=CC=C1` (stereo not shown) [compound 4], the Michaelis constant (Km) is 0.84 ± 0.26 µM.
